Source: US8008291B2 (Mimetica Pty Ltd, priority 2008, dated 2011)

Target: T1, human MC5R (hMC5R) (Homo sapiens, UniProt P33032)
T1 construct: purchased Perkin Elmer RBXMC5M400UA
Assay: Human MC5R radioligand binding assay (membranes, [125I] NDP-MSH displacement)
Settings: hMC5R binding; tested as trifluoroacetate or hydrochloride salts, or free bases; read-out: MC5R radioligand IC50
Method: Assessments of compound binding to human MC5R (hMC5R) ) by displacement of an ^125I-labeled NDP-MSH receptor ligand peptide were performed essentially as described in the data sheets produced by Perkin Elmer to accompany their frozen hMC5R membranes (Perkin Elmer catalog number RBXMC5M400UA).
[^125I] NDP-MSH: radiolabeled in house and purified by HPLC:
• Na^125I (0.5 mCi, 17.4 Ci/mg) was added to 50 μL sodium phosphate (50 mM, pH7.4) in an eppendorf tube precoated with IODOGEN. After incubation for 10 mins the phosphate buffer containing the iodine was added to NDP-MSH (10 ul at 1 mg/mL) in a separate eppendorf tube. This was incubated for a further 10 mins. The iodinated NDP-MSH was purified by HPLC on a Zorbax SB 300 column using solvent A: 0.05% TFA and solvent B: 90% acetonitrile 0.045% TFA with a linear gradient, 0-67% B over 60 mins. […] Resuspended membranes were kept on ice until they were added to the wells of the plate. Binding Protocol for 400 microassays per vial: • Assays were performed in 96 well polypropylene plates. […] This was incubated for 1 hr at 37° C.

T1 sequence (P33032 whole entry): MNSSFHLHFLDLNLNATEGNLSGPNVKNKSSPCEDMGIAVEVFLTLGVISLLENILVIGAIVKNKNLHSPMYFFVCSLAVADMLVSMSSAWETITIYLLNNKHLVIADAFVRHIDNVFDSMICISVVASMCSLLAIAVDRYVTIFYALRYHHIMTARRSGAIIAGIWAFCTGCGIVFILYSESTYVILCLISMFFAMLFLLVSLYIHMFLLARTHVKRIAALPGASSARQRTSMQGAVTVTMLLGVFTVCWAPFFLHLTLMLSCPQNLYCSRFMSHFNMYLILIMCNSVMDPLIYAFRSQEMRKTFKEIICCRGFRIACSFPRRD

Row | SMILES | IC50 [nM]
1 | COC(CN1CC[C@@H](CNC(=O)c2ccc3ccccc3c2)N[C@@H](CCCNC(=N)N)C1=O)c1ccccc1 (stereo partly drawn) [Compound 289, N-(((3S,5S)-3-(3-guanidinopropyl)-1-(2-methoxy-2-phenylethyl)-2-oxo-1,4-diazepan-5-yl)methyl)-2-naphthamide] | < 1000
2 | CCC(CN1CC[C@@H](CNC(=O)c2ccc(Cl)c(Cl)c2)N[C@@H](CCN2CCCCC2)C1=O)C1CC1 (stereo partly drawn) [Compound 486, 3,4-dichloro-N-(((3S,5S)-1-(2-cyclopropylbutyl)-2-oxo-3-(2-(piperidin-1-yl)ethyl)-1,4-diazepan-5-yl)methyl)benzamide] | < 1000
3 | NCCC[C@@H]1N[C@H](CNC(=O)c2ccc3ccccc3c2)CCN(Cc2cc(C(F)(F)F)cc(C(F)(F)F)c2)C1=O [Compound 340, N-(((3S,5S)-3-(3-aminopropyl)-1-(3,5-bis(trifluoromethyl)benzyl)-2-oxo-1,4-diazepan-5-yl)methyl)-2-naphthamide] | < 10000
4 | CC(C)[C@H](N)C(=O)NCC[C@@H]1N[C@H](CNC(=O)c2ccc(Cl)c(Cl)c2)CCN(Cc2ccc(Cl)cc2Cl)C1=O [Compound 506, N-(((3S,5S)-3-(2-((S)-2-amino-3-methylbutanamido)ethyl)-1-(2,4-dichlorobenzyl)-2-oxo-1,4-diazepan-5-yl)methyl)-3,4-dichlorobenzamide] | < 10000
5 | NCCC[C@@H]1N[C@H](CNC(=O)c2ccc3ccccc3c2)CCN(Cc2cc(F)cc(F)c2)C1=O [Compound 313, N-(((3S,5S)-3-(3-aminopropyl)-1-(3,5-difluorobenzyl)-2-oxo-1,4-diazepan-5-yl)methyl)-2-naphthamide] | < 10000
6 | CC(CN1CC[C@@H](CNC(=O)c2ccc3ccccc3c2)N[C@@H](CCN)C1=O)c1ccc(Cl)cc1 (stereo partly drawn) [Compound 422, N-(((3S,5S)-3-(2-aminoethyl)-1-(2-(4-chlorophenyl)propyl)-2-oxo-1,4-diazepan-5-yl)methyl)-2-naphthamide] | < 10000
7 | COc1cc(CN2CC[C@@H](CNC(=O)c3ccc4ccccc4c3)N[C@@H](CCCN)C2=O)cc(OC)c1 [Compound 316, N-(((3S,5S)-3-(3-aminopropyl)-1-(3,5-dimethoxybenzyl)-2-oxo-1,4-diazepan-5-yl)methyl)-2-naphthamide] | < 10000
8 | CC[C@H](CN1CC[C@@H](CNC(=O)c2ccc3cc(Cl)ccc3c2)N[C@@H](CCN2CCCCC2)C1=O)C(C)C [Compound 472, 6-chloro-N-(((3S,5S)-1-((S)-2-ethyl-3-methylbutyl)-2-oxo-3-(2-(piperidin-1-yl)ethyl)-1,4-diazepan-5-yl)methyl)-2-naphthamide] | < 100
9 | CC[C@H](CN1CC[C@@H](CNC(=O)c2ccc3cc(Cl)ccc3c2)N[C@@H](CCNC(=N)NC(C)C)C1=O)c1ccccc1 [Compound 474, 6-chloro-N-(((3S,5S)-3-(2-(3-isopropylguanidino)ethyl)-2-oxo-1-((S)-2-phenylbutyl)-1,4-diazepan-5-yl)methyl)-2-naphthamide] | < 10
10 | CCC(CN1CC[C@@H](CNC(=O)c2ccc3cc(Cl)ccc3c2)N[C@@H](CCN)C1=O)c1ccsc1 (stereo partly drawn) [Compound 509, N-(((3S,5S)-3-(2-aminoethyl)-2-oxo-1-(2-(thiophen-3-yl)butyl)-1,4-diazepan-5-yl)methyl)-6-chloro-2-naphthamide] | < 100
11 | Cc1cc(F)cc(CN2CC[C@@H](CNC(=O)c3ccc4ccccc4c3)N[C@@H](CCCN)C2=O)c1 [Compound 321, N-(((3S,5S)-3-(3-aminopropyl)-1-(3-fluoro-5-methylbenzyl)-2-oxo-1,4-diazepan-5-yl)methyl)-2-naphthamide] | < 10000
12 | N=C(N)NCCC[C@@H]1N[C@H](CNC(=O)c2ccc3ccccc3c2)CCN(CCC2CCCCC2)C1=O [Compound 242, N-(((3S,5S)-1-(2-cyclohexylethyl)-3-(3-guanidinopropyl)-2-oxo-1,4-diazepan-5-yl)methyl)-2-naphthamide] | < 1000
13 | CC[C@H](CN1CC[C@@H](CNC(=O)c2ccc3cc(Cl)ccc3c2)N[C@@H](CCNC(=N)NC)C1=O)c1ccccc1 [Compound 458, 6-chloro-N-(((3S,5S)-3-(2-(3-methylguanidino)ethyl)-2-oxo-1-((S)-2-phenylbutyl)-1,4-diazepan-5-yl)methyl)-2-naphthamide] | < 100
14 | CC[C@H](CN1CC[C@@H](CNC(=O)c2ccc(Cl)c(Cl)c2)N[C@@H](CCNCc2ccccc2)C1=O)c1ccccc1 [Compound 429, N-(((3S,5S)-3-(2-(benzylamino)ethyl)-2-oxo-1-((S)-2-phenylbutyl)-1,4-diazepan-5-yl)methyl)-3,4-dichlorobenzamide] | < 100

Continued, values first:

Row | IC50 [nM] | SMILES
15 | < 10000 | Cc1c(C(=O)NC[C@@H]2CCN(CC(c3ccccc3)c3ccccc3)C(=O)[C@H](CCCN)N2)cnn1-c1ccccc1 [Compound 241, N-(((3S,5S)-3-(3-aminopropyl)-1-(2,2-diphenylethyl)-2-oxo-1,4-diazepan-5-yl)methyl)-5-methyl-1-phenyl-1H-pyrazole-4-carboxamide]
16 | < 10 | O=C(/C=C/c1ccc(Br)cc1)NC[C@@H]1CCN(CC(c2ccccc2)c2ccccc2)C(=O)[C@H](CCN2CCCCC2)N1 [Compound 413, (E)-3-(4-bromophenyl)-N-(((3S,5S)-1-(2,2-diphenylethyl)-2-oxo-3-(2-(piperidin-1-yl)ethyl)-1,4-diazepan-5-yl)methyl)acrylamide]
17 | < 1000 | N=C(N)NCCC[C@@H]1N[C@H](CNC(=O)/C(F)=C/c2ccccc2)CCN(CC(c2ccccc2)c2ccccc2)C1=O [Compound 195, (Z)-N-(((3S,5S)-1-(2,2-diphenylethyl)-3-(3-guanidinopropyl)-2-oxo-1,4-diazepan-5-yl)methyl)-2-fluoro-3-phenylacrylamide]
18 | < 100 | CC[C@H](CN1CC[C@@H](CNC(=O)c2ccc(Cl)c(Cl)c2)N[C@@H](CCCN2CCCCC2)C1=O)c1ccccc1 [Compound 418, 3,4-dichloro-N-(((3S,5S)-2-oxo-1-((S)-2-phenylbutyl)-3-(3-(piperidin-1-yl)propyl)-1,4-diazepan-5-yl)methyl)benzamide]
19 | < 100 | O=C(NC[C@@H]1CCN(CC(c2ccccc2)c2ccccc2)C(=O)[C@H](CCCNC2CCCC2)N1)c1ccc2ccccc2c1 [Compound 246, N-(((3S,5S)-3-(3-(cyclopentylamino)propyl)-1-(2,2-diphenylethyl)-2-oxo-1,4-diazepan-5-yl)methyl)-2-naphthamide]
20 | < 10 | CC[C@H](CN1CC[C@@H](CNC(=O)c2ccc3cc(Cl)ccc3c2)N[C@@H](CCN2CCCCC2)C1=O)c1ccsc1 [Compound 511, 6-chloro-N-(((3S,5S)-2-oxo-3-(2-(piperidin-1-yl)ethyl)-1-((S)-2-(thiophen-3-yl)butyl)-1,4-diazepan-5-yl)methyl)-2-naphthamide]
21 | < 10000 | O=C(/C=C/c1ccc(Cl)cc1)NC[C@@H]1CCN(CC(c2ccccc2)c2ccccc2)C(=O)[C@H](CNC(=O)c2ccccn2)N1 [Compound 393, N-(((2S,7S)-7-(((E)-3-(4-chlorophenyl)acrylamido)methyl)-4-(2,2-diphenylethyl)-3-oxo-1,4-diazepan-2-yl)methyl)picolinamide]
22 | < 1000 | NCCC[C@@H]1N[C@H](CNC(=O)C=Cc2ccccc2)CCN(CC(c2ccccc2)c2ccccc2)C1=O [Compound 212, N-(((3S,5S)-3-(3-aminopropyl)-1-(2,2-diphenylethyl)-2-oxo-1,4-diazepan-5-yl)methyl)cinnamamide]
23 | < 1000 | O=C(O)c1ccc2cc(C(=O)NC[C@@H]3CCN(CC(c4ccccc4)c4ccccc4)C(=O)[C@H](CCN4CCCCC4)N3)ccc2c1 [Compound 473, 6-(((3S,5S)-1-(2,2-diphenylethyl)-2-oxo-3-(2-(piperidin-1-yl)ethyl)-1,4-diazepan-5-yl)methylcarbamoyl)-2-naphthoic acid]
24 | < 1000 | CC(C)(NC(=O)/C=C/c1ccc(Cl)cc1)[C@@H]1CCN(CC(c2ccccc2)c2ccccc2)C(=O)[C@H](CCN2CCCCC2)N1 [Compound 420, (E)-3-(4-chlorophenyl)-N-(2-((3S,5S)-1-(2,2-diphenylethyl)-2-oxo-3-(2-(piperidin-1-yl)ethyl)-1,4-diazepan-5-yl)propan-2-yl)acrylamide]
25 | < 10 | CC[C@H](CN1CC[C@@H](CNC(=O)c2ccc(Cl)cc2Cl)N[C@@H](CCN2CCCCC2)C1=O)c1ccccc1 [Compound 534, 2,4-dichloro-N-(((3S,5S)-2-oxo-1-((S)-2-phenylbutyl)-3-(2-(piperidin-1-yl)ethyl)-1,4-diazepan-5-yl)methyl)benzamide]
26 | < 1000 | Cc1ccc(C)n1CC[C@@H]1N[C@H](CNC(=O)/C=C/c2ccc(Cl)cc2)CCN(CC(c2ccccc2)c2ccccc2)C1=O [Compound 404, (E)-3-(4-chlorophenyl)-N-(((3S,5S)-3-(2-(2,5-dimethyl-1 H-pyrrol-1-yl)ethyl)-1-(2,2-diphenylethyl)-2-oxo-1,4-diazepan-5-yl)methyl)acrylamide]
27 | < 10000 | N=C(N)NCCC[C@@H]1N[C@H](CNC(=O)c2ccc3ccccc3c2)CCN(CC(C(=O)N2CCCCC2)c2ccccc2)C1=O (stereo partly drawn) [Compound 343, N-(((3S,5S)-3-(3-guanidinopropyl)-2-oxo-1-(3-oxo-2-phenyl-3-(piperidin-1-yl)propyl)-1,4-diazepan-5-yl)methyl)-2-naphthamide]
